{"source": "patent US12139520B2", "about": "(priority 2020, dated 2024)", "key": {"[1]": {"target": "T1, hAMY3 receptor (Homo sapiens, UniProt O60896+P30988)", "T1 sequence (P30988 25-474)": "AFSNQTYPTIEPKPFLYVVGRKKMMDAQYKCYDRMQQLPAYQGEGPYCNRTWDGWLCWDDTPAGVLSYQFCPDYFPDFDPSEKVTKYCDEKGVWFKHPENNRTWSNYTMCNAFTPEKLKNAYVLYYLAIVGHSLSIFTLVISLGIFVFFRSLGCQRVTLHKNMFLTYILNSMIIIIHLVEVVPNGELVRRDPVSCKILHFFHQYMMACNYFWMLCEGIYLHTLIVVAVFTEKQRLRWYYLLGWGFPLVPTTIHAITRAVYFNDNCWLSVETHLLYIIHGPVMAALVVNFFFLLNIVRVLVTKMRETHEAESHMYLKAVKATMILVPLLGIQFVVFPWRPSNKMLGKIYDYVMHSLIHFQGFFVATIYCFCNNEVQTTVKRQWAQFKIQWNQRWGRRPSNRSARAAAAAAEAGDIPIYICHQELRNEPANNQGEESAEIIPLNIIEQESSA", "T1 sequence (O60896 24-148 partner)": "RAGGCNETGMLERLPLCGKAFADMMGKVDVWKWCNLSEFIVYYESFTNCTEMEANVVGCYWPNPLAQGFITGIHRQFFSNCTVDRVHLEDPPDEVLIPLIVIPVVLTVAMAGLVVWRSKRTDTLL", "assay": "cAMP assay for in vitro receptor activation, hAMY3-R", "assay_type": "cell-based", "settings": "cAMP assay, hAMY3 receptor; read-out: hAMY3R EC50", "outline": "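Stable hAMY3 cells; DPBS + 0.05% casein + 0.5 mM IBMX; graded compound doses, 30 min, RT; cAMP via HTRF Gs kit, TR-FRET read at 1 h.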"}, "[2]": {"target": "hAM1 receptor (Homo sapiens, UniProt O60895+Q16602)", "sequence (Q16602 23-461)": "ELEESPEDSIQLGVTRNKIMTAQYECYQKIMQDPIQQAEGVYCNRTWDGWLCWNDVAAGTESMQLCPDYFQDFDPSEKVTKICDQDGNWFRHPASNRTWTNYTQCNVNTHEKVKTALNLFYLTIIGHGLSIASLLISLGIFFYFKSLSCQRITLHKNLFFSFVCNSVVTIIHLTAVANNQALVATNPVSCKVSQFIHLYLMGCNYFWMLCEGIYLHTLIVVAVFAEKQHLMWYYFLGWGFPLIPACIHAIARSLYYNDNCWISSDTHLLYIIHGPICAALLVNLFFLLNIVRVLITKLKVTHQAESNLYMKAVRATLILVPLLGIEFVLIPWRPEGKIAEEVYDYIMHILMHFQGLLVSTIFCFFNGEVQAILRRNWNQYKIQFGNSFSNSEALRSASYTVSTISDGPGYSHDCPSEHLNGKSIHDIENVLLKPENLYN", "sequence (O60895 43-175 partner)": "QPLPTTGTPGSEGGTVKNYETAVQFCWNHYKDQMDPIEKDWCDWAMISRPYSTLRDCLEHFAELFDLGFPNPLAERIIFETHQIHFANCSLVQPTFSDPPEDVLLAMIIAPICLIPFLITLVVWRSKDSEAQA", "assay": "cAMP assay for in vitro receptor activation, hAM1-R", "assay_type": "cell-based", "settings": "cAMP assay, hAM1 receptor; read-out: hAM1R EC50", "outline": "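Monoclonal stable hAM1-overexpressing cells, thawed from frozen stock; 8000 cells/well in DPBS + 0.05% casein + 0.5 mM IBMX; read-out cAMP.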"}}, "note": "Numbered stars: 1 amine (or outer) side, 2 acyl side, 3 side chain; on linkers, the order of the positions; unused ones are H or OH. Bridge positions count the residues as written; N and C are the ends. Square brackets hold non-standard residues; d marks the D form. Side chains are listed from the residue outwards. Peptide text beside a SMILES is read from it. * marks the point of attachment. C20 diacid = O=C(O)CCCCCCCCCCCCCCCCCCC(=O)*; γGlu = O=C(O)[C@H](CCC(=O)[*:2])N[*:1]; Hyp = O=C(O)[C@@H]1C[C@@H](O)CN1; AEEA = NCCOCCOCC(=O)O; Aib = CC(C)(N)C(=O)O"}
{"smiles": "CC[C@H](C)[C@H](NC(=O)[C@H](CCC(N)=O)NC(=O)[C@H](CCC(=O)O)NC(=O)[C@H](C)NC(=O)[C@H](CC(C)C)NC(=O)[C@H](CCCNC(=N)N)NC(=O)[C@H](CCC(N)=O)NC(=O)[C@@H](NC(=O)[C@@H](NC(=O)[C@@H]1CSSC[C@H](NC(=O)[C@H](CCCCN)NC(=O)CC[C@H](NC(=O)CCCCCCCCCCCCCCCCCCC(=O)O)C(=O)O)C(=O)N[C@@H](CC(N)=O)C(=O)N[C@@H]([C@@H](C)O)C(=O)N[C@@H](C)C(=O)N[C@@H]([C@@H](C)O)C(=O)N1)[C@@H](C)O)C(C)C)C(=O)N[C@@H](Cc1ccc(O)cc1)C(=O)N[C@@H](CCC(N)=O)C(=O)N[C@@H](Cc1ccccc1)C(=O)N[C@H](C(=O)N[C@@H](CC(=O)O)C(=O)N[C@@H](CCCCN)C(=O)N[C@@H](CC(=O)O)C(=O)N[C@@H](CCCCN)C(=O)N[C@@H](CC(=O)O)C(=O)N[C@@H](CC(N)=O)C(=O)N[C@H](C(=O)N[C@@H](C)C(=O)N1CCC[C@H]1C(=O)N1CCC[C@H]1C(=O)N[C@H](C(=O)N[C@@H](CCC(N)=O)C(=O)N[C@H](C(=O)NCC(=O)N[C@@H](CO)C(=O)N[C@@H](CC(N)=O)C(=O)NCC(=O)N1C[C@H](O)C[C@H]1C(N)=O)C(C)C)[C@@H](C)O)C(C)C)[C@@H](C)O", "note": "[compound 73] ({C20 diacid-γGlu}-KCNTATCTVQRLAEQIYQFTDKDKDNVAPPTQVGSNG[Hyp]-NH2; disulfide 2-7)", "values": [{"measurement": "EC50", "setting": "[1]", "result": 0.013, "unit": "nM"}, {"measurement": "EC50", "setting": "[2]", "result": "> 5000", "unit": "nM"}]}
{"smiles": "CC[C@H](C)[C@H](NC(=O)[C@H](CCC(N)=O)NC(=O)[C@H](Cc1c[nH]cn1)NC(=O)[C@H](C)NC(=O)[C@H](CC(C)C)NC(=O)[C@H](CCCNC(=N)N)NC(=O)[C@H](CCC(N)=O)NC(=O)[C@@H](NC(=O)[C@@H](NC(=O)[C@@H]1CSSC[C@H](NC(=O)[C@H](CCCCN)NC(=O)CC[C@H](NC(=O)CCCCCCCCCCCCCCCCCCC(=O)O)C(=O)O)C(=O)N[C@@H](CC(N)=O)C(=O)N[C@@H]([C@@H](C)O)C(=O)N[C@@H](CC(C)C)C(=O)N[C@@H]([C@@H](C)O)C(=O)N1)[C@@H](C)O)C(C)C)C(=O)N[C@@H](Cc1ccc(O)cc1)C(=O)N[C@@H](CCC(N)=O)C(=O)N[C@@H](Cc1ccccc1)C(=O)N[C@H](C(=O)N[C@@H](CC(=O)O)C(=O)N[C@@H](CCCCN)C(=O)N[C@@H](CC(=O)O)C(=O)N[C@@H](CCCCN)C(=O)N[C@@H](CC(=O)O)C(=O)N[C@@H](CC(N)=O)C(=O)N[C@H](C(=O)N[C@@H](C)C(=O)N1CCC[C@H]1C(=O)N1CCC[C@H]1C(=O)N[C@H](C(=O)N[C@@H](CC(N)=O)C(=O)N[C@H](C(=O)NCC(=O)N[C@@H](CO)C(=O)N[C@@H](CC(N)=O)C(=O)NCC(=O)N1C[C@H](O)C[C@H]1C(N)=O)C(C)C)[C@@H](C)O)C(C)C)[C@@H](C)O", "note": "[compound 225] ({C20 diacid-γGlu}-KCNTLTCTVQRLAHQIYQFTDKDKDNVAPPTNVGSNG[Hyp]-NH2; disulfide 2-7)", "values": [{"measurement": "EC50", "setting": "[1]", "result": 0.186, "unit": "nM"}, {"measurement": "EC50", "setting": "[2]", "result": "> 5000", "unit": "nM"}]}
{"smiles": "CC[C@H](C)[C@H](NC(=O)[C@H](CCC(N)=O)NC(=O)[C@H](Cc1c[nH]cn1)NC(=O)[C@H](C)NC(=O)[C@H](CC(C)C)NC(=O)[C@H](CCCNC(=N)N)NC(=O)[C@H](CCC(N)=O)NC(=O)[C@@H](NC(=O)[C@@H](NC(=O)[C@@H]1CSSC[C@H](NC(=O)[C@H](CCCCN)NC(=O)CC[C@H](NC(=O)CCCCCCCCCCCCCCCCCCC(=O)O)C(=O)O)C(=O)N[C@@H](CC(N)=O)C(=O)N[C@@H]([C@@H](C)O)C(=O)N[C@@H](C)C(=O)N[C@@H]([C@@H](C)O)C(=O)N1)[C@@H](C)O)C(C)C)C(=O)N[C@@H](C)C(=O)N[C@@H](CCC(N)=O)C(=O)N[C@@H](Cc1ccccc1)C(=O)N[C@H](C(=O)N[C@@H](CC(=O)O)C(=O)N[C@@H](CCCCN)C(=O)N[C@@H](CC(=O)O)C(=O)N[C@@H](CCCCN)C(=O)N[C@@H](CC(=O)O)C(=O)N1CCC[C@H]1C(=O)N[C@H](C(=O)N[C@@H](C)C(=O)N1CCC[C@H]1C(=O)N1CCC[C@H]1C(=O)N[C@H](C(=O)N[C@@H](CC(N)=O)C(=O)N[C@H](C(=O)NCC(=O)N[C@@H](CO)C(=O)N[C@@H](CC(N)=O)C(=O)N[C@@H](CO)C(=O)N1C[C@H](O)C[C@H]1C(N)=O)C(C)C)[C@@H](C)O)C(C)C)[C@@H](C)O", "note": "[compound 120] ({C20 diacid-γGlu}-KCNTATCTVQRLAHQIAQFTDKDKDPVAPPTNVGSNS[Hyp]-NH2; disulfide 2-7)", "values": [{"measurement": "EC50", "setting": "[1]", "result": 0.025, "unit": "nM"}, {"measurement": "EC50", "setting": "[2]", "result": "> 5000", "unit": "nM"}]}
{"smiles": "CC[C@H](C)[C@H](NC(=O)[C@H](CCC(N)=O)NC(=O)[C@H](Cc1c[nH]cn1)NC(=O)[C@H](C)NC(=O)[C@H](CC(C)C)NC(=O)[C@H](CCCNC(=N)N)NC(=O)[C@H](CCC(N)=O)NC(=O)[C@@H](NC(=O)[C@@H](NC(=O)[C@@H]1CSSC[C@H](NC(=O)[C@H](CCCCN)NC(=O)CC[C@H](NC(=O)CCCCCCCCCCCCCCCCCCC(=O)O)C(=O)O)C(=O)N[C@@H](CC(N)=O)C(=O)N[C@@H]([C@@H](C)O)C(=O)NC(C)(C)C(=O)N[C@@H]([C@@H](C)O)C(=O)N1)[C@@H](C)O)C(C)C)C(=O)N[C@@H](Cc1ccc(O)cc1)C(=O)N[C@@H](CCC(N)=O)C(=O)N[C@@H](Cc1ccccc1)C(=O)N[C@H](C(=O)N[C@@H](CC(=O)O)C(=O)N[C@@H](CCCCN)C(=O)N[C@@H](CC(=O)O)C(=O)N[C@@H](CCCCN)C(=O)N[C@@H](CC(=O)O)C(=O)N[C@@H](CC(N)=O)C(=O)N[C@H](C(=O)N[C@@H](C)C(=O)N1CCC[C@H]1C(=O)N1CCC[C@H]1C(=O)N[C@H](C(=O)N[C@@H](CC(N)=O)C(=O)N[C@H](C(=O)NCC(=O)N[C@@H](CO)C(=O)N[C@@H](CC(N)=O)C(=O)NCC(=O)N1C[C@H](O)C[C@H]1C(N)=O)C(C)C)[C@@H](C)O)C(C)C)[C@@H](C)O", "note": "[compound 119] ({C20 diacid-γGlu}-KCNT[Aib]TCTVQRLAHQIYQFTDKDKDNVAPPTNVGSNG[Hyp]-NH2; disulfide 2-7)", "values": [{"measurement": "EC50", "setting": "[1]", "result": 0.024, "unit": "nM"}, {"measurement": "EC50", "setting": "[2]", "result": "> 5000", "unit": "nM"}]}
{"smiles": "CC[C@H](C)[C@H](NC(=O)[C@H](CCC(N)=O)NC(=O)[C@H](CCC(=O)O)NC(=O)[C@H](C)NC(=O)[C@H](CC(C)C)NC(=O)[C@H](CCCNC(=N)N)NC(=O)[C@H](CCC(N)=O)NC(=O)[C@@H](NC(=O)[C@@H](NC(=O)[C@@H]1CSSC[C@H](NC(=O)[C@@H](N)CCCCN)C(=O)N[C@@H](CC(N)=O)C(=O)N[C@@H]([C@@H](C)O)C(=O)N[C@@H](C)C(=O)N[C@@H]([C@@H](C)O)C(=O)N1)[C@@H](C)O)C(C)C)C(=O)N[C@@H](Cc1ccc(O)cc1)C(=O)N[C@@H](CCC(N)=O)C(=O)N[C@@H](Cc1ccccc1)C(=O)N[C@@H](CCCCNC(=O)COCCOCCNC(=O)COCCOCCNC(=O)CC[C@H](NC(=O)CCCCCCCCCCCCCCCCCCC(=O)O)C(=O)O)C(=O)N[C@@H](CC(=O)O)C(=O)N[C@@H](CCCCN)C(=O)N[C@@H](CC(=O)O)C(=O)N[C@@H](CCCCN)C(=O)N[C@@H](CC(=O)O)C(=O)N[C@@H](CC(N)=O)C(=O)N[C@H](C(=O)N[C@@H](C)C(=O)N1CCC[C@H]1C(=O)N1CCC[C@H]1C(=O)N[C@H](C(=O)N[C@@H](CC(N)=O)C(=O)N[C@H](C(=O)NCC(=O)N[C@@H](CO)C(=O)N[C@@H](CC(N)=O)C(=O)NCC(=O)N1C[C@H](O)C[C@H]1C(N)=O)C(C)C)[C@@H](C)O)C(C)C", "note": "[compound 89] (H-KCNTATCTVQRLAEQIYQFK([AEEA-AEEA-γGlu-C20 diacid])DKDKDNVAPPTNVGSNG[Hyp]-NH2; disulfide 2-7; N-terminus assumed)", "values": [{"measurement": "EC50", "setting": "[1]", "result": 0.015, "unit": "nM"}, {"measurement": "EC50", "setting": "[2]", "result": "> 5000", "unit": "nM"}]}
{"smiles": "CC[C@H](C)[C@H](NC(=O)[C@H](CCC(N)=O)NC(=O)[C@H](Cc1c[nH]cn1)NC(=O)[C@H](C)NC(=O)[C@H](CC(C)C)NC(=O)[C@H](CCCNC(=N)N)NC(=O)[C@H](C)NC(=O)[C@@H](NC(=O)[C@@H](NC(=O)[C@@H]1CSSC[C@H](NC(=O)[C@H](CCCCN)NC(=O)CC[C@H](NC(=O)CCCCCCCCCCCCCCCCCCC(=O)O)C(=O)O)C(=O)N[C@@H](CC(N)=O)C(=O)N[C@@H]([C@@H](C)O)C(=O)N[C@@H](C)C(=O)N[C@@H]([C@@H](C)O)C(=O)N1)[C@@H](C)O)C(C)C)C(=O)N[C@@H](CC(N)=O)C(=O)N[C@@H](CCC(N)=O)C(=O)N[C@@H](Cc1ccccc1)C(=O)N[C@H](C(=O)N[C@@H](CC(=O)O)C(=O)N[C@@H](CCCCN)C(=O)N[C@@H](CC(=O)O)C(=O)N[C@@H](CCCCN)C(=O)N[C@@H](CC(=O)O)C(=O)N[C@@H](CC(N)=O)C(=O)N[C@H](C(=O)N[C@@H](C)C(=O)N1CCC[C@H]1C(=O)N1CCC[C@H]1C(=O)N[C@H](C(=O)N[C@@H](CC(N)=O)C(=O)N[C@H](C(=O)NCC(=O)N[C@@H](CO)C(=O)N[C@@H](CC(N)=O)C(=O)NCC(=O)N1C[C@H](O)C[C@H]1C(N)=O)C(C)C)[C@@H](C)O)C(C)C)[C@@H](C)O", "note": "[compound 86] ({C20 diacid-γGlu}-KCNTATCTVARLAHQINQFTDKDKDNVAPPTNVGSNG[Hyp]-NH2; disulfide 2-7)", "values": [{"measurement": "EC50", "setting": "[1]", "result": 0.015, "unit": "nM"}, {"measurement": "EC50", "setting": "[2]", "result": "> 5000", "unit": "nM"}]}
